Entries after “also recorded” stand apart in the source; their conditions may differ.
Legend:
[1] = Approximate solubility of technical grade active ingredients in the adjuvant solvents (shaker, iterative approach); conditions: for solubility in the three solvents, in words: Solvents I, II and III taken together
Protocol: Solubility studies were conducted using three materials to determine their ability to dissolve various biocide active ingredients: Solvent I-formula 1(a); Solvent II-formula 1(b); and Solvent III-formula 3(a). Active ingredients were chosen from three classes of biocides and primarily reflected difficult to dissolve actives. The following biocides were evaluated.
The approximate solubility of each technical grade active ingredient was determined in each of the solvents.
All examples were conducted on a 100 gram or 50 gram scale. The Dimethoate, 2,4-D, mesotrione and halosulfuron examples were conducted at 50 gram scale. All other examples were conducted on a 100 gram scale.
An amount of solvent was weighed into a 4 ounce jar (or 2 oz). An amount of active ingredient was weighed and added to the solvent in the jar. The jar was capped tightly and placed on a New Brunswick Scientific model C1 platform shaker. The samples were shaken at the 75% setting for 1 hour. During the mixing and after 1 hour each sample was examined and completeness of solubility noted. Using an iterative approach, an approximate solubility for each active ingredient in each of the solvents was determined. Each sample was allowed to sit undisturbed for 1 hour after mixing to determine if any crystallization would occur in those samples which dissolved.

[2] = cited from earlier work
[3] = Solvent I (formula 1(a)), % solids by weight, shaken 1 hour, minimum concentration tested 2.5%
[4] = Solvent II (formula 1(b)), % solids by weight, shaken 1 hour, minimum concentration tested 2.5%
[5] = Solvent III (formula 3(a)), % solids by weight, shaken 1 hour, minimum concentration tested 2.5%

| Structure (SMILES) | solubility in the three solvents, in words [1] | approximate solubility range in Solvent I [1, 3] | approximate solubility range in Solvent I ([1]; 1 h) | approximate solubility range in Solvent II ([1]; 1 h) | approximate solubility range in Solvent III ([1]; 1 h) | approximate solubility range in Solvent II [1, 4] | also measured |
| --- | --- | --- | --- | --- | --- | --- | --- |
| O=C(O)COc1ccc(Cl)cc1Cl [2,4-D] | did dissolve | – | – | – | – | – | – |
| COc1c(Cl)ccc(Cl)c1C(=O)O [Dicamba] | greatest solubility; also recorded: did dissolve | <10% | – | – | – | – | – |
| OC(Cn1cncn1)(c1ccc(F)cc1)c1ccccc1F (stereo not drawn) [Flutrifol] | – | – | >2.5%; <5% | >2.5%; <5% | >5%; <20% | – | – |
| CS(=O)(=O)NC(=O)c1cc(Oc2ccc(C(F)(F)F)cc2Cl)ccc1[N+](=O)[O-] [Fomesafen] | – | – | <2.5% | >2.5%; <10% | >5%; <10% | – | – |
| CC1(C)[C@H](C(=O)O[C@H](C#N)c2cccc(Oc3ccccc3)c2)[C@@H]1/C=C(\Cl)C(F)(F)F [Gamma cyhalothrin] | greatest solubility | >80% | – | – | – | >80% | approximate solubility range in Solvent III [1, 5]: >80% |
| O=C(O)CNCP(=O)(O)O [Glyphosate] | not very soluble | <2.5% | – | – | – | <2.5% | approximate solubility range in Solvent III [1, 5]: <2.5%; solubility in most solvents, including water ([2]; most solvents, including water): not soluble to any great extent |
| COc1cc(OC)nc(NC(=O)NS(=O)(=O)c2c(C(=O)O)c(Cl)nn2C)n1 [Halosulfuron] | – | – | <2.5% | <2.5% | >2.5%; <5% | – | – |
| CS(=O)(=O)c1ccc(C(=O)C2C(=O)CCCC2=O)c([N+](=O)[O-])c1 [Mesotrione] | – | <2.5% | – | – | – | <2.5% | solubility in Solvent III, in words ([1]; Solvent III): soluble; solubility in acetonitrile and acetone ([2]; acetonitrile and acetone): limited solubility |
| COCC(=O)N(c1c(C)cccc1C)C(C)C(=O)OC (stereo not drawn) [Metalaxyl] | greatest solubility | – | – | – | – | – | – |
| CCOC(=O)CCC(C)=O [Solvent III] | – | – | – | – | – | – | solvating properties compared among the three solvents ([1]; in all but one active ingredient, for those active ingredients which were soluble): best solvating properties |

Reference: patent US20160044914A1, “BIOCIDE COMPOSITIONS, METHODS OF MANUFACTURE, AND METHODS OF USE” (SEGETIS, INC., priority 2013, published 2016)
